The term Ki denotes a dissociation constant, usually derived from enzyme kinetics or from competition with a known ligand. Low readings indicate tighter binding, high ones weaker binding.

Our source for the Ki and minimal effective dose values is patent EP1359152B1, “Diazabicyclic derivatives as nicotinic acetylcholine receptor ligands” (ABBOTT LABORATORIES, priority 1999, dated 2000).

Counter-ions that a name gives are not always drawn.

Assay [1] deals with T1, neuronal nicotinic acetylcholine receptors (Rattus norvegicus, UniProt P09483+P12390).
T1 construct: crude synaptic membrane preparations from whole rat brain; from tissue; host or cells: whole rat brain, crude synaptic membranes
The assay can be described thus: [3H]-cytisine binding to neuronal nicotinic acetylcholine receptors, crude synaptic membranes from whole rat brain. The procedure: The In Vitro protocols for determination of nicotinic acetylcholine channel receptor binding potencies of ligands were determined as follows.
Washed membranes were stored at-80 °C prior to use. Frozen aliquots were slowly thawed and resuspended in 20 volumes of buffer (containing: 120 mM NaCl, 5 mM KCI, 2 mM MgCl2, 2 mM CaCl2 and 50 mM Tris-Cl, pH 7.4 @4 °C). After centrifuging at 20,000x g for 15 minutes, the pellets were resuspended in 30 volumes of buffer.
The test compounds were dissolved in water to make 10 mM stock solutions. Each solution was then diluted (1:100) with buffer (as above) and further taken through seven serial log dilutions to produce test solutions from 10^-5 to 10^-11 M.
Samples were incubated for 60 minutes at 4 °C, then rapidly filtered through Whatman GF/B filters presoaked in 0.5% polyethyleneimine using 3 x 4 mL of ice-cold buffer. The filters are counted in 4 mL of Ecolume® (ICN). Nonspecific binding was determined in the presence of 10 µM (-)-nicotine and values were expressed as a percentage of total binding. IC50 values were determined with the RS-1 (BBN) nonlinear least squares curve-fitting program and IC50 values were converted to Ki values using the Cheng and Prusoff correction (Ki=IC50/(1+[ligand]/Kd of ligand).

The next assay relates to mice. The assay can be described thus: Mouse hot plate paradigm (analgesic effect, latency until tenth jump). The assay is classed as in vivo. The following applies: ip, 0.5 h, minimally effective dose among doses tested, intraperitoneal, dosed 30 minutes prior to testing, hot plate 55 °C, cut-off 180 seconds, increase in tenth jump latency relative to control, read-out: (MED). The procedure: An in vivo protocol was utilized to determine the effectiveness of nicotinic acetylcholine receptor ligands as analgesic agents in the mouse hot plate paradigm.
Separate groups of mice, (n=8/group) were utilized for each dose group. All drugs were administered by the intraperitoneal route of administration. Test drugs were dissolved in water to make a 6.2 mM stock solution. Animals were dosed with this solution (10 mL/kg body weight) for a 62 micromol/kg dose. Lower doses were administered similarly, following serial dilution of the stock solution in half-log increments. Animals were dosed 30 minutes prior to testing in the hot plate. The hotplate utilized was an automated analgesia monitor (Model #AHP16AN, Omnitech Electronics, Inc. of Columbus, Ohio). The temperature of the hot plate was maintained at 55 °C and a cut-off time of 180 seconds was utilized. Latency until the tenth jump was recorded as the dependent measure. An increase in the tenth jump latency relative to the control was considered an effect.

T1 sequence (P09483 31-630): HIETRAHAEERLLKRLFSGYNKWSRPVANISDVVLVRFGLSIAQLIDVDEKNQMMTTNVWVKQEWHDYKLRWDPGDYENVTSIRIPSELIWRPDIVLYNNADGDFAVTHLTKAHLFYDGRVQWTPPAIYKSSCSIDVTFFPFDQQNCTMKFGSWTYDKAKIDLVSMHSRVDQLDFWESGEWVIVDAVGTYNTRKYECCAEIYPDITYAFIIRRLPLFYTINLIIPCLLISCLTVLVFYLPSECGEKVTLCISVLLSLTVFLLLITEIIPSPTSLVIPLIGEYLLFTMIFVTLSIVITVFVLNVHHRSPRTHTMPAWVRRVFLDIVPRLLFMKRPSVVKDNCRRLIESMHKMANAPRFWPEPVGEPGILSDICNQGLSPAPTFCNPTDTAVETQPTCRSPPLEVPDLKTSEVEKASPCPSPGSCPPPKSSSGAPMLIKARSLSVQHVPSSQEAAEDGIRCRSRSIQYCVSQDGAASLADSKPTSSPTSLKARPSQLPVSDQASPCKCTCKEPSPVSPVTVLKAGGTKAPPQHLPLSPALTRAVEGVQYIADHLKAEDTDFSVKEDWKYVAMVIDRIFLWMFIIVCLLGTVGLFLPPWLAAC
T1 sequence (P12390 25-500): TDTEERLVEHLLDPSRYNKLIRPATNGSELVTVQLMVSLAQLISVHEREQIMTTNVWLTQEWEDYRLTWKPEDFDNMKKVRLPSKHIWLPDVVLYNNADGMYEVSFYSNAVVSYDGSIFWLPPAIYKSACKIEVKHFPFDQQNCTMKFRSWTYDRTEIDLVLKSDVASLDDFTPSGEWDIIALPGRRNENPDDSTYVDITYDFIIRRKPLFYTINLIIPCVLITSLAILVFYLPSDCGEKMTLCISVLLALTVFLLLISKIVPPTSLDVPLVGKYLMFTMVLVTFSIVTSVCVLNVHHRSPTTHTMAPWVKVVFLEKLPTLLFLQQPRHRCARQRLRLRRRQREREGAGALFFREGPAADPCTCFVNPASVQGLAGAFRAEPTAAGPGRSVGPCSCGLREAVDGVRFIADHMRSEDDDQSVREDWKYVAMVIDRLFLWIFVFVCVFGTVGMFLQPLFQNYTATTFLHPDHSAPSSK

In assay [1], `c1cncc(CN2C[C@H]3C[C@@H]2CN3)c1` [Example 20, (1R,4R)-2-(3-pyridinylmethyl)-2,5-diazabicyclo[2.2.1]heptane trihydrobromide] registered a Ki of 52000 pM. Moreover, in the assay on mice, the minimal effective dose was found to be 62 µmol/kg.
Compound `NC(=O)c1cncc(N2C[C@@H]3C[C@H]2CN3)c1` [Example 38, (1S,4S)-2-(5-aminocarbonyl-3-pyridinyl)-2,5-diazabicyclo[2.2.1]heptane bis(4-methylbenzenesulfonate)] returned an inhibition constant Ki in assay [1] of 24000 pM. Also, the minimal effective dose with mice worked out at 19 µmol/kg.
In the same order, the values of `Cc1cc(N2C[C@H]3C[C@@H]2CN3)cnc1Cl` [Example 47, (1R,4R)-2-(6-chloro-5-methyl-3-pyridinyl)-2,5-diazabicyclo[2.2.1]heptane 4-methylbenzenesulfonate] are 9 pM and 6.2 µmol/kg.
`COc1ccc(N2C[C@H]3C[C@@H]2CN3)cn1` [Example 46, (1R,4R)-2-(6-methoxy-3-pyridinyl)-2,5-diazabicyclo[2.2.1]heptane 4-methylbenzenesulfonate]: the inhibition constant Ki in assay [1] came to 250 pM. The minimal effective dose in the assay on mice is 6.2 µmol/kg.
With `N#Cc1cncc(N2C[C@H]3C[C@@H]2CN3)c1` [Example 44, (1R,4R)-2-(5-cyano-3-pyridinyl)-2,5-diazabicyclo[2,2,1]heptane 4-methylbenzenesulfonate], the affinity in assay [1], expressed as Ki, was 30 pM. For the same compound, the minimal effective dose in the assay on mice was determined as 0.62 µmol/kg.
